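96-well plates; 48 h exposure; 5 concentrations. Endpoints by linear interpolation between flanking doses. Not reached: highest tested concentration assigned. GI50 is the concentration that inhibits growth by half.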 Active and inactive are the calls of the source. Cut-off read from the data, not from the text of the source: active = GI50 up to about 1.1 µM and inactive = higher.

Test in all cases: NCI-60 cell line screen, 48 h
Assay [1] relates to UO-31.
In assay [2] the test system is EKVX.
In assay [3] the test system is T47D.
Assay [4] has as its system HT-29.
The subject of assay [5] is SN12C.
Assay [6] deals with KM12.
Assay [7] has as its system COLO 205.
The test system of assay [8] is RPMI-8226.
Assay [9] relates to DU-145.
The test system of assay [10] is SF-295.
For assay [11], the system named is NCI/ADR-RES.
The test system of assay [12] is MDA-MB-231.
Assay [13] has as its system A498.
Assay [14] deals with HCT-15.
The test system of assay [15] is XF498.
Assay [16] deals with M19-MEL.
For assay [17], the system named is DLD-1.
Assay [18] concerns SNB-78.
Assay [19] relates to DMS-114.

Take `COc1cc2cc(C(=O)N3CC(COS(C)(=O)=O)c4ccc(O)cc43)[nH]c2c(OC)c1OC` (configuration not stated): the GI50 in assay [1] was < 0.0001 µM (active); in assay [2], 0.00082 µM (active); in [3] it was 0.000552 µM (active); in assay [4], < 0.0001 µM (active); in [5] it was < 0.0001 µM (active); in assay [6], 0.000169 µM (active). The GI50 is 0.000432 µM (active) in assay [7]; < 0.0001 µM (active) in assay [8]; < 0.0001 µM (active) in assay [9]; < 0.0001 µM (active) in [10]; < 0.0001 µM (active) in [11]; < 0.0001 µM (active) in [12]. The figures for the GI50 in assay [13] and in assay [14] were < 0.01 µM (active) and below 0.0001 µM, respectively.
For `COC(=O)c1oc([N+](=O)[O-])c(Cl)c1Cl`, the GI50 was 8.07 µM (inactive) in [1]; 19.8 µM (inactive) in assay [2]; 4.76 µM (inactive) in assay [3]; 16.5 µM (inactive) in assay [4]; 7.53 µM (inactive) in assay [5]; 5.83 µM (inactive) in assay [6]. Also, the GI50 in [7] is 4.12 µM (inactive); in assay [8], 3.96 µM (inactive); in assay [9], 17.6 µM (inactive); in [10] it was 11.8 µM (inactive); in [11], 13.4 µM (inactive); in [12], 7.35 µM (inactive). Also, the results for the GI50 in [13] and in assay [14] were 15.1 µM (inactive) and 7.57 µM, respectively.
For `NC(=O)c1nnc2ccc(F)cc2c1N`, the GI50 in assay [1] is 40.3 µM (inactive); in [2] it was > 100 µM (inactive); in assay [3], > 100 µM (inactive); in assay [4] it was > 100 µM (inactive); in [5], > 100 µM (inactive); in assay [6] it was > 100 µM (inactive). Moreover, the GI50 in [7], in assay [8], in assay [9], in assay [10], in assay [11] and in assay [12] was > 100 µM (inactive) each time. In addition, the GI50 is > 100 µM (inactive) in assay [13] and above 100 µM in assay [14].
With `Cn1c(N/N=C/c2ccc(Cl)cc2)nc(-c2ccc(Cl)cc2)c(C#N)c1=O`, the GI50 in [1] is 16 µM (inactive); in assay [2], 25.6 µM (inactive); in assay [3], > 100 µM (inactive); in assay [4] it was 41.1 µM (inactive); in assay [5], 44.1 µM (inactive); in assay [6], 22.6 µM (inactive). Further, the GI50 in [7] was 47 µM (inactive); in [8] it was 33.3 µM (inactive); in assay [9] it was 22.5 µM (inactive); in assay [10], 17.5 µM (inactive); in [11], > 100 µM (inactive); in assay [12], 22.4 µM (inactive). Besides, the GI50 in [13] was 32.1 µM (inactive); in [14], 31.1 µM.
`Nn1c(-c2ccccc2)n[nH]c1=O`: the GI50 in [1], in [2], in assay [3], in assay [4], in assay [5] and in assay [6] was > 100 µM (inactive) in each case. Also, the GI50 in assay [7], in assay [8], in assay [9], in assay [10], in [11] and in assay [12] was > 100 µM (inactive) in each case. For the same molecule, the GI50 was > 100 µM (inactive) in assay [13] and above 100 µM in assay [14].
Turning to `CCCCCCCCCCCCCCCCP(=O)(O)OCC(N)C(=O)O` (configuration not stated), the GI50 in assay [1] is 16 µM (inactive); in [2], > 100 µM (inactive); in assay [3] it was > 100 µM (inactive); in assay [4], 55.3 µM (inactive); in assay [5] it was 41.5 µM (inactive); in assay [6] it was 20.3 µM (inactive). Also, the GI50 was 46.1 µM (inactive) in [7]; 21 µM (inactive) in [8]; > 100 µM (inactive) in assay [9]; 20.7 µM (inactive) in assay [10]; > 100 µM (inactive) in assay [11]; 32.1 µM (inactive) in [12]. In addition, the GI50 in assay [13] was 23.6 µM (inactive); in assay [14], 31.3 µM.
Regarding `Clc1ccc2c(Cl)ncnc2c1`, the GI50 is > 100 µM (inactive) in assay [1]; 63.4 µM (inactive) in [2]; > 100 µM (inactive) in [4]; > 100 µM (inactive) in assay [5]; > 100 µM (inactive) in assay [15]; > 100 µM (inactive) in assay [6]. For the same molecule, the GI50 in assay [7], in assay [8], in assay [10], in [16], in assay [17] and in assay [13] was > 100 µM (inactive) each time. In assay [14], this molecule had a GI50 above 100 µM.
For the molecule `C(/c1ccco1)=c1/nc(-c2ccccc2)n2c1nc1ccccc12`, the GI50 in assay [1] is 67 µM (inactive); in assay [2], 0.0107 µM (active); in assay [3], 1.08 µM (active); in [4], 26.6 µM (inactive); in assay [5] it was 37.4 µM (inactive); in assay [6], 11.2 µM (inactive). For the same molecule, the GI50 is 98.9 µM (inactive) in [7]; 11.2 µM (inactive) in assay [8]; > 100 µM (inactive) in [9]; 12.9 µM (inactive) in assay [10]; 23.4 µM (inactive) in assay [11]; 16.5 µM (inactive) in assay [12]. The GI50 in [13] was > 100 µM (inactive); in assay [14], 97.3 µM.
For the molecule `Clc1ccc2nc(-c3ccccc3)nc(Cl)c2c1`, the GI50 in [1] is > 100 µM (inactive); in [2] it was 29.2 µM (inactive); in [4], > 100 µM (inactive); in assay [18], 88.1 µM (inactive); in assay [5], > 100 µM (inactive); in [6], > 100 µM (inactive). The GI50 in assay [7] is > 100 µM (inactive); in assay [19] it was 39.3 µM (inactive); in assay [8], > 100 µM (inactive); in assay [10], 46.3 µM (inactive); in assay [16], 58.2 µM (inactive); in [17], 60.1 µM (inactive). For the same molecule, the GI50 in assay [13] is > 100 µM (inactive); in assay [14], above 100 µM.
Regarding `[N-]=[N+]=Nc1c([N+](=O)[O-])c(=O)n2c3c(cccc13)CCC2`, the GI50 in assay [1] is 15.2 µM (inactive); in assay [2], 19.4 µM (inactive); in assay [3], 5.42 µM (inactive); in assay [4], 15 µM (inactive); in assay [5] it was 9.77 µM (inactive); in assay [6], 17 µM (inactive). The GI50 in [7] is 6.28 µM (inactive); in assay [8], 3.15 µM (inactive); in assay [9], 16.9 µM (inactive); in assay [10], > 65.5 µM (inactive); in [11], 20.6 µM (inactive); in assay [12], 10.6 µM (inactive). Further, the GI50 is 27 µM (inactive) in [13] and 6.44 µM in assay [14].
On to `CC(C)(Cl)C(Br)CCC(Br)(CCl)C(Cl)CBr` (configuration not stated), for which the GI50 in assay [1], in [2], in assay [3], in [4], in assay [5] and in assay [6] was > 10 µM (inactive) throughout. In addition, the GI50 in assay [7], in [8], in assay [9], in [10], in assay [11] and in assay [12] was > 10 µM (inactive) throughout. Moreover, the GI50 is > 10 µM (inactive) in [13] and above 10 µM in assay [14].
Consider `CC1=C[C@H](C[C@]2(C)c3c(c4c(C)cccc4oc3=O)O[C@@H]2C)OC1=O`, for which the GI50 in assay [1] is 32.5 µM (inactive); in assay [2] it was > 100 µM (inactive); in [3] it was 50.8 µM (inactive); in assay [4], 35.6 µM (inactive); in [5], 54.8 µM (inactive); in assay [6] it was > 100 µM (inactive). The GI50 was 49.9 µM (inactive) in assay [7]; 0.0778 µM (active) in assay [8]; > 100 µM (inactive) in assay [9]; > 100 µM (inactive) in assay [10]; 20.1 µM (inactive) in assay [11]; 40.2 µM (inactive) in [12]. Also, the GI50 in assay [13] was > 100 µM (inactive); in assay [14], 18.3 µM.
For the molecule `COc1c(O)c2c(c3cc(C(=O)N4CCc5c4c(O)c(OC)c4[nH]c(C(=O)N6CC7CC78C6=CC(=O)c6[nH]cc(C)c68)cc54)[nH]c13)CCN2C(N)=O` (configuration not stated) [CC-1065], the GI50 was 0.00834 µM (active) in assay [1]; 0.867 µM (active) in assay [2]; 0.356 µM (active) in assay [3]; 0.00404 µM (active) in assay [18]; 0.000685 µM (active) in [5]; 0.003 µM (active) in assay [6]. For the same molecule, the GI50 in assay [7] was 0.00168 µM (active); in [19] it was 0.0025 µM (active); in assay [8], 0.027 µM (active); in [9] it was 0.284 µM (active); in assay [10], 0.00119 µM (active); in assay [12], 0.486 µM (active). The GI50 was 0.0048 µM (active) in assay [16], 0.00103 µM (active) in assay [17], 0.0028 µM (active) in [13] and 0.0149 µM in assay [14].
`O=C(O)CN1CCN(CC(=O)O)CCN(CC(=O)O)CCN(CC(=O)O)CC1` [TETRAXETAN]: the GI50 in [1], in [2], in [3], in [4], in assay [5] and in assay [6] was > 100 µM (inactive) throughout. Further, the GI50 in assay [7], in assay [8], in assay [9], in assay [10], in assay [11] and in assay [12] was > 100 µM (inactive) in each case. Also, the GI50 was > 100 µM (inactive) in [13] and above 100 µM in assay [14].

Values taken from ChEMBL document CHEMBL1201862, “PubChem BioAssay data set” (2004).
